Experimental findings from patent US10228380B2, “Methods for targeting membrane steroid transporters” (priority 2018, dated 2019) are described below.

The target of one test is T1, EcR (Drosophila melanogaster, UniProt P34021).
T1 construct: endogenous in cells; host or cells: Drosophila S2 culture cells
T1 sequence (P34021 1-878): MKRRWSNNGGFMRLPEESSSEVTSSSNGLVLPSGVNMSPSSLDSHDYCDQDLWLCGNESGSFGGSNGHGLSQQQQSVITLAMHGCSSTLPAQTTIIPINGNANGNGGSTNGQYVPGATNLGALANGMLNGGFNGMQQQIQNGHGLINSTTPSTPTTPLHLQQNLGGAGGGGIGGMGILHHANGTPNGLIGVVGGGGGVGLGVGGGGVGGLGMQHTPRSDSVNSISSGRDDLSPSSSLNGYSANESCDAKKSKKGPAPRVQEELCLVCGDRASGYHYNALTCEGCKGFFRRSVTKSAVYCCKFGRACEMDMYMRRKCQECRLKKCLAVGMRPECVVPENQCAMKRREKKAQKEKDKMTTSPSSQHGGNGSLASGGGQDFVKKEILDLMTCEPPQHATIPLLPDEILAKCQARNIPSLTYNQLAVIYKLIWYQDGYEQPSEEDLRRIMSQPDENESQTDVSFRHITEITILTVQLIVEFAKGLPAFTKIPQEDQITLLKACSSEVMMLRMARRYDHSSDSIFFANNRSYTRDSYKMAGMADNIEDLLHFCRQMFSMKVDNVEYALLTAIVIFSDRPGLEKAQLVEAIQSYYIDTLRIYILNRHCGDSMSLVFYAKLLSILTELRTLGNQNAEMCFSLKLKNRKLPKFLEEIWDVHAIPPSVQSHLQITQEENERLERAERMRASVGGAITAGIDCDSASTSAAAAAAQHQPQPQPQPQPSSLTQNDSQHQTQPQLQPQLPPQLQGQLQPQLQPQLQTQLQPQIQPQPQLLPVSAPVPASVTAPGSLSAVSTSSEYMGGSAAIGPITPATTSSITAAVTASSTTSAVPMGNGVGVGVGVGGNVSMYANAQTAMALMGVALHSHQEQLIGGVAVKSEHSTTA
T1 sequence (P20153 1-508 partner): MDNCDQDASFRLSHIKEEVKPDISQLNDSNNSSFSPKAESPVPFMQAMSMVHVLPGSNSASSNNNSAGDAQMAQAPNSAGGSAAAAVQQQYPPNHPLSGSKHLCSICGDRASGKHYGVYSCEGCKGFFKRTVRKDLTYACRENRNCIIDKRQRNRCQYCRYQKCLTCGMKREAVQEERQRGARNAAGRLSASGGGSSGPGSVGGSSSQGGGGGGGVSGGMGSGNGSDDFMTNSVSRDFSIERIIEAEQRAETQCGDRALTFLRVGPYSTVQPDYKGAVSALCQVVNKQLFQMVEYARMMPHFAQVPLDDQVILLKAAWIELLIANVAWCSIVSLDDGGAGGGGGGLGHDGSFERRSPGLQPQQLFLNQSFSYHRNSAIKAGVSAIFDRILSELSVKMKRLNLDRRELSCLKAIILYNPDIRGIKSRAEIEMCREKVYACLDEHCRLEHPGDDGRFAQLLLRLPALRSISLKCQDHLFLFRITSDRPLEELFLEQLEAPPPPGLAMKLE
Kind of test: luciferase reporter assay in S2 culture cells with or without EcI RNAi. The class given is cell-based, D. melanogaster. The note with it: for effect of EcI RNAi treatment on the cells' response as measured by the luciferase assay: S2 culture cells, varying concentrations, 24 hours, EcI RNAi vs control cells without RNAi. Here is the method:
FIG. 3 is a graph of the fold change of D. melanogaster EcR response after incubation of S2 culture cells for 24 hours in varying concentrations of 20E (left graph) or chromafenozide (CF; middle graph), as measured by luciferase reporter assay. The right graph is a time-course analysis of EcR-mediated luciferase activity in S2 culture cells treated with 10^−7M of 20E. In each graph, the control data is the solid top line, and the dashed bottom line is data of cells treated with EcI RNAi. Each point represents mean±SD; * indicates p<0.05 from Student's t-test compared to control; ** indicates p<0.01 from Student's t-test compared to control.
FIG. 5A depicts a schematic of a luciferase reporter assay in a cell derived from an arthropod cell line, for determining transport of 20E by the membrane steroid hormone transporter encoded by ecdysone importer (EcI).
As described above, in some embodiments, the transcriptional activity of a steroid hormone nuclear receptor is used to evaluate the transport of a steroid hormone across the cell membrane of an initial cell, or a comparative cell. In some variations, the luciferase reporter assay is used to measure the transcriptional activity of the steroid hormone nuclear receptor. For example, with reference to FIG. 5A and FIG. 5B, depicted are schemes showing the use of a luciferase reporter assay in an S2 cell (FIG. 5A) or in a HEK cell (FIG. 5B) to evaluate the transcriptional activity of the nuclear receptor encoded by the gene ecdysone receptor (EcR).
S2 culture cells treated with EcI RNAi were incubated with varying concentrations of 20E or with chromafenozide (CF) for 24 hours, and their response was monitored using a luciferase reporter assay. The relative response of the treated cells was compared to control cells, which were incubated with 20E or CF but not treated with RNAi. […] CF is a non-steroidal EcR agonist, and is expected to enter the cells through an unknown transporter distinct from EcI.
(A reporter such as luciferase makes a cellular process visible.)

The target of another test is T2, EcI and EcR (Drosophila melanogaster, UniProt P34021).
T2 construct: expressed in transfected cells; host or cells: human HEK cells
T2 sequence (P34021 1-878): T1 sequence (P34021 1-878)
As to the kind of experiment: luciferase reporter assay in HEK culture cells transfected with EcR or with EcI and EcR. The class given is cell-based, D. melanogaster. Conditions: varying concentrations, 24 hours. Here is the method:
FIG. 4 is a relative luciferase reporter activity in HEK culture cells treated for 24 h with 20E. Response of the cells transfected with EcR is the solid bottom line; cells transfected with EcR and EcI is the dashed top line. Each point represents mean±SEM; ** indicates p<0.01 from Student's t-test compared to control.
FIG. 5B depicts a schematic of a luciferase reporter assay in a cell derived from a mammalian cell line, for determining transport of 20E by the membrane steroid hormone transporter encoded by ecdysone importer (EcI).
As described above, in some embodiments, the transcriptional activity of a steroid hormone nuclear receptor is used to evaluate the transport of a steroid hormone across the cell membrane of an initial cell, or a comparative cell. In some variations, the luciferase reporter assay is used to measure the transcriptional activity of the steroid hormone nuclear receptor. […]
Human HEK cells were transfected with EcI and EcR, and their response to incubation with varying concentrations of 20E for 24 hours was evaluated using the luciferase reporter assay. Control HEK cells that were transfected only with EcR were also evaluated.

Turning to `Cc1cc(C)cc(C(=O)N(NC(=O)c2ccc3c(c2C)CCCO3)C(C)(C)C)c1` [CF, chromafenozide], on EcR, the “effect of EcI RNAi treatment on the cells' response as measured by the luciferase assay” value is listed as “less effect”.

`CC(C)(O)CC[C@@H](O)[C@](C)(O)[C@H]1CC[C@@]2(O)C3=CC(=O)[C@@H]4C[C@@H](O)[C@@H](O)C[C@]4(C)[C@H]3CC[C@]12C` [20E, 20-hydroxyecdysone]: the “effect of EcI RNAi treatment on the cells' response over time (time-course of luciferase activity)” value on EcR (S2 cells treated with 10^−7 M, with or without RNAi) was “significantly decreased”. The “effect of EcI RNAi treatment on the cells' response as measured by the luciferase assay” value on EcR is reported as “significantly decreased”. The “response as measured by luciferase assay” value on EcI and EcR (control human HEK cells transfected only with EcR) is listed as “not responsive”; on EcI and EcR (human HEK cells transfected with both EcI and EcR), “responsive”.
